This note sets out measurements from PMC7311170, “Moyamoya disease factor RNF213 is a giant E3 ligase with a dynein-like core and a distinct ubiquitin-transfer mechanism” (eLife, 2020).

Experiment [1] addresses T1, RNF213 (mouse, full-length) (Mus musculus, UniProt E9Q555).
T1 construct: full length, 5148 residues, 584 kDa, C-terminal Gly3-His10 tag kept; codon-optimised, High Five insect cells; monomer; modelled residues 476-5148
The experiment is described as follows: NADH-coupled ATPase assay. The experiment is classed as biochemical. As to conditions: 2 mM ATP, equimolar MgCl2 added, pH 7.2, 30 C; AAA3 and AAA4 proposed competent sites; rate only in figure.

For experiment [2], the target named is T1, RNF213 (mouse, full-length). The experiment is described as follows: cryo-EM structure. The experiment is classed as binding. Conditions: co-purified ATP, Mg; bound to catalytically inactive AAA2, contacts from AAA3.
In experiment [3] the target is T2, RNF213 (mouse, full-length) (Mus musculus, UniProt E9Q555, R4753K).
T2 construct: full length, 5148 residues, 584 kDa, C-terminal Gly3-His10 tag kept; codon-optimised, High Five insect cells; monomer; modelled residues 476-5148
T2 sequence (E9Q555 whole entry R4753K, the tested form may be a part): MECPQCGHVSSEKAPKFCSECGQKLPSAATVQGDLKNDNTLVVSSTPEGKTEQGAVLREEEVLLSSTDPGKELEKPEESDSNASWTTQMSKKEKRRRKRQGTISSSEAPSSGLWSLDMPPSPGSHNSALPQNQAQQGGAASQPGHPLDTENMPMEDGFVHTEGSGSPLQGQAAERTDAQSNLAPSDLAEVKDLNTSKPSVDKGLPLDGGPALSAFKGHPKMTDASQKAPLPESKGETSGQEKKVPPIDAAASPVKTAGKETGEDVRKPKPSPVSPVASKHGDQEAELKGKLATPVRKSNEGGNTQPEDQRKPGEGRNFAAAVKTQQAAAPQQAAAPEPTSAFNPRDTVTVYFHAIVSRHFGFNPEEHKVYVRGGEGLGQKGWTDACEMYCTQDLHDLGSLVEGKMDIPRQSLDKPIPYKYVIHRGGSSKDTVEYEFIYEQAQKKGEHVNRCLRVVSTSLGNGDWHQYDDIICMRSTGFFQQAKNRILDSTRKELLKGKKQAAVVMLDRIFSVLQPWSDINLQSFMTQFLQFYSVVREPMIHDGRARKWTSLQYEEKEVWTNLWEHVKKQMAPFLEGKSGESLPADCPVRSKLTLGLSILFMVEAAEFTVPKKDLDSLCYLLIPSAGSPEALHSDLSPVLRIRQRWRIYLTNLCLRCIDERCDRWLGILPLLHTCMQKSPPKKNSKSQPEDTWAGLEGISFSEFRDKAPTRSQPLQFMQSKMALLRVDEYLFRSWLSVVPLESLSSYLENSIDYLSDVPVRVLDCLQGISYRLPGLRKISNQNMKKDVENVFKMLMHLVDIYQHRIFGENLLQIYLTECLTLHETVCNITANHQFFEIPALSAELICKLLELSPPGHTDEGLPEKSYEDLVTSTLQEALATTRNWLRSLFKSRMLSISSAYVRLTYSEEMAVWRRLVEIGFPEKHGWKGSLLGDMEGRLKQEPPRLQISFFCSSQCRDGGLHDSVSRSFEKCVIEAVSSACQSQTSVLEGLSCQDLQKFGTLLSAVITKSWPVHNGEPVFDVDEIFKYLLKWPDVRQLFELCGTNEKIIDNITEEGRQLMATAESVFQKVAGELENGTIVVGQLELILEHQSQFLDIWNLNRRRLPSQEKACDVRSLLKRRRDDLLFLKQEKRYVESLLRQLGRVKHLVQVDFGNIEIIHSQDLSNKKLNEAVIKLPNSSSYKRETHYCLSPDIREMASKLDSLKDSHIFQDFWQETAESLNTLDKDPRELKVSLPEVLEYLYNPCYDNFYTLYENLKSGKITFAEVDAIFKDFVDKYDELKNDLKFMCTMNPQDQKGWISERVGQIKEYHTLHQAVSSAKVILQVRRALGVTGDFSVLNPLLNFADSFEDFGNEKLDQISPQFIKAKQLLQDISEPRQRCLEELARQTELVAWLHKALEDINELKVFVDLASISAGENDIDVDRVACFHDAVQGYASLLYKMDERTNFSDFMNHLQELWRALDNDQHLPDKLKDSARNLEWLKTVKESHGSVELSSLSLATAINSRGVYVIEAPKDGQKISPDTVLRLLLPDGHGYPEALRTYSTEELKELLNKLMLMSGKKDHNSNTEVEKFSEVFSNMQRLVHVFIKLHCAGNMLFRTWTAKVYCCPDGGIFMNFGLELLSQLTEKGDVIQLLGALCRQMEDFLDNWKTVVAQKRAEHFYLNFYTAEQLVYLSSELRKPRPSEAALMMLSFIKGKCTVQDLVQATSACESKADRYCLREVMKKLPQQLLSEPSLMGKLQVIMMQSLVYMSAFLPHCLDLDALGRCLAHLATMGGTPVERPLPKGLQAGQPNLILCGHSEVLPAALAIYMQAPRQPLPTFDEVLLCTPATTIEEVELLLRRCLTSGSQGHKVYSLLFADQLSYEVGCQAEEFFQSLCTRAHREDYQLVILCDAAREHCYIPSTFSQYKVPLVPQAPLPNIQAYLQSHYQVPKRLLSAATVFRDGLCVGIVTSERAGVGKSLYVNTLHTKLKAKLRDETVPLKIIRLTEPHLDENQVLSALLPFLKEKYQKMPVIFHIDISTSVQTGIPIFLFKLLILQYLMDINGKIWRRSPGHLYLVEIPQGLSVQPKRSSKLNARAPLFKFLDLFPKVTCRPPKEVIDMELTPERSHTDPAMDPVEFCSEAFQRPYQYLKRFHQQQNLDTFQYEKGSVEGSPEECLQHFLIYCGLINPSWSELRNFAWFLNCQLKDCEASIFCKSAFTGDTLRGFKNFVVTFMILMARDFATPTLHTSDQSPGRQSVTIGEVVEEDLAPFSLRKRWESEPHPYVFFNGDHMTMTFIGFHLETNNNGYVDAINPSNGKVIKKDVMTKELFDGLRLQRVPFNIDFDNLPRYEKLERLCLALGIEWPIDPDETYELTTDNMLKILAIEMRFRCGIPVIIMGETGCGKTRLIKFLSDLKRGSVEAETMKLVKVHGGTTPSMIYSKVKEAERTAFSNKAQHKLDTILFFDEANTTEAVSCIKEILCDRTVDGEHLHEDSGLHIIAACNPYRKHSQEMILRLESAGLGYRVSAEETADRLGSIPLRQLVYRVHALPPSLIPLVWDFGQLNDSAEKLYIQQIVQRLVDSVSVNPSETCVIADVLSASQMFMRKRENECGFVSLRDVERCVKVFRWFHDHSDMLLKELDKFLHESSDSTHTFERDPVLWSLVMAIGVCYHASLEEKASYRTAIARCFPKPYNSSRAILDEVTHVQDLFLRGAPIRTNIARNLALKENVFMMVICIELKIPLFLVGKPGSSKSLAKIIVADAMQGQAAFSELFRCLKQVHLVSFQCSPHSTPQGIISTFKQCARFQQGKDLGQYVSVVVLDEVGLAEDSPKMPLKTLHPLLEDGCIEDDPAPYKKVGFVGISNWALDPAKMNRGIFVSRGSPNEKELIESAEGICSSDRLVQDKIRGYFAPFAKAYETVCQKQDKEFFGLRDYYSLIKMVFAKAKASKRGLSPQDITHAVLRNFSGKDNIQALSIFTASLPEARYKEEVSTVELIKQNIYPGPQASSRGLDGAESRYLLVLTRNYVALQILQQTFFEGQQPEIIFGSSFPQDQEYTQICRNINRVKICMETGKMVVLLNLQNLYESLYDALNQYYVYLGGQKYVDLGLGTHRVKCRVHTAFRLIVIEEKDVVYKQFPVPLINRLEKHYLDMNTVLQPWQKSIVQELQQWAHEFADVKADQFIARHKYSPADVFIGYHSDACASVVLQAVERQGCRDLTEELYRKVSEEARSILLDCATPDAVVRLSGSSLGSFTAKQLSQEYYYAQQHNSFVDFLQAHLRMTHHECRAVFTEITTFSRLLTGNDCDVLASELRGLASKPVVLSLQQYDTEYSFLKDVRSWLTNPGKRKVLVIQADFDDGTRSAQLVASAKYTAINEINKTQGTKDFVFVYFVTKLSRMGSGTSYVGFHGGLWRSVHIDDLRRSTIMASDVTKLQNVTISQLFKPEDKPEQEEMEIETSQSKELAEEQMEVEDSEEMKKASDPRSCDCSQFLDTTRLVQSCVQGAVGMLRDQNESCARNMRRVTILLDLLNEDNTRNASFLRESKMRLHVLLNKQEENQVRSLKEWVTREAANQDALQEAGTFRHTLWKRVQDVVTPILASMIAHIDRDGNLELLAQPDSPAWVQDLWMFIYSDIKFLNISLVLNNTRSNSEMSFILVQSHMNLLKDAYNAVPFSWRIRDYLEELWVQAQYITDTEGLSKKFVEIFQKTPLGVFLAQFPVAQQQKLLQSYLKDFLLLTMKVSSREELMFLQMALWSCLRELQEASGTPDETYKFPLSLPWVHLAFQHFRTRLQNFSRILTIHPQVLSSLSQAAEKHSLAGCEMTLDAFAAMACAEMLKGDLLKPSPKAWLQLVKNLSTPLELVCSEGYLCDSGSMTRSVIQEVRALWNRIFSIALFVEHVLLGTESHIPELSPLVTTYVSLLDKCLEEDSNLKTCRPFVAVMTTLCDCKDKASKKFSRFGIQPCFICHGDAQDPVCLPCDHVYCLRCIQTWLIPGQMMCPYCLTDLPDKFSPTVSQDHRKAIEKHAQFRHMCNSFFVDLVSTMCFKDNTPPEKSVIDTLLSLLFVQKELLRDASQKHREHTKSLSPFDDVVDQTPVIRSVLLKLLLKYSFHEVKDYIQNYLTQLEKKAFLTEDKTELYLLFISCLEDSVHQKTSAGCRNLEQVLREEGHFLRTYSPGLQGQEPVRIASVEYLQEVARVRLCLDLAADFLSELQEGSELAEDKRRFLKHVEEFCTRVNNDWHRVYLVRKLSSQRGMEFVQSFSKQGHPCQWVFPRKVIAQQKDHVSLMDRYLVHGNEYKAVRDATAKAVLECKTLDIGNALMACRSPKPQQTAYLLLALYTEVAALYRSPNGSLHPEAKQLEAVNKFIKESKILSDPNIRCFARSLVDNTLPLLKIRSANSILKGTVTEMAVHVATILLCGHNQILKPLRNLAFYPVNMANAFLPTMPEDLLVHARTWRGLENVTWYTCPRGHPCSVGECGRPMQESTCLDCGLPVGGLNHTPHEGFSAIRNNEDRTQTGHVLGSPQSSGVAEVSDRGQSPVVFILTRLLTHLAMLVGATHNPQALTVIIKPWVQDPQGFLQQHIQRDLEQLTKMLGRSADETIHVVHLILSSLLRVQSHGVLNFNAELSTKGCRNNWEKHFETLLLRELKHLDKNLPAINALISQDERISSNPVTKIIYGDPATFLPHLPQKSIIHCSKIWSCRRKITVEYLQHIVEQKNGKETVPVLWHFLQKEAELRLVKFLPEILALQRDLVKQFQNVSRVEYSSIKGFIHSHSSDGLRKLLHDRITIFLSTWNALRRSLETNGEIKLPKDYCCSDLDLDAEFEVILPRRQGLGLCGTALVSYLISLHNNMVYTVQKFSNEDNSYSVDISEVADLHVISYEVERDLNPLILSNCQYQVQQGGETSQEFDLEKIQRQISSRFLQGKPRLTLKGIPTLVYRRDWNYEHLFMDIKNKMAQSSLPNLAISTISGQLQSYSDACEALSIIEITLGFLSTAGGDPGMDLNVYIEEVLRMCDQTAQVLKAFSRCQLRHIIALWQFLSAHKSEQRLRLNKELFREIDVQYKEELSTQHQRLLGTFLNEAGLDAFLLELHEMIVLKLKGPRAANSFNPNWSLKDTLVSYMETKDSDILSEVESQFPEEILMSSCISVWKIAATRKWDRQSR
The experiment is described as follows: NADH-coupled ATPase assay. The experiment is classed as biochemical. As to conditions: 2 mM ATP, equimolar MgCl2 added, pH 7.2, 30 C; Moyamoya founder mutant (human R4810K); rate only in figure.

T1 sequence (E9Q555 whole entry, the tested form may be a part): as the sequence (E9Q555 whole entry R4753K, the tested form may be a part) above, with K4753R counted along it

As to `Nc1ncnc2c1ncn2[C@@H]1O[C@H](COP(=O)(O)OP(=O)(O)OP(=O)(O)O)[C@@H](O)[C@H]1O` [ATP], the “NADH-coupled ATPase assay” value was “ATPase activity of RNF213 is an order of magnitude lower than that of a processive” in experiment [1] and “does not significantly alter the enzymatic properties of RNF213 in vitro” in experiment [3]. Further, the cryo-EM structure entry in experiment [2] is “unambiguously revealed a co-purified ATP molecule that is bound to AAA2”.
